According to patent US10477864B2, “Microbiocidal quinoline (thio)carboxamide derivatives” (priority 2016, dated 2019):

Legend:
[1] = system: Botryotinia fuckeliana (Botrytis cinerea); assay: Botryotinia fuckeliana (Botrytis cinerea) / liquid culture (gray mould); type: cell-based; settings: 72 h, read-out: control of Botryotinia fuckeliana
Fusarium culmorum [2] = assay: microbe, parasite or virus in culture; type: cell-based; settings: read-out: control of Fusarium culmorum
[3] = system: Glomerella lagenarium (Colletotrichum lagenarium); assay: Glomerella lagenarium (Colletotrichum lagenarium) / liquid culture (anthracnose); type: cell-based; settings: Colletotrichum orbiculare; read-out: control of Glomerella lagenarium
Gaeumannomyces graminis = Gaeumannomyces graminis / liquid culture (take-all of cereals); type: cell-based; settings: read-out: control of Gaeumannomyces graminis
[4] = system: Monographella nivalis (Microdochium nivale); assay: Monographella nivalis (Microdochium nivale) / liquid culture (foot rot cereals); type: cell-based; settings: 96 h, read-out: control of Monographella nivalis
[5] = system: Magnaporthe grisea (Pyricularia oryzae); assay: microbe, parasite or virus in culture; type: cell-based; settings: 72 h, read-out: control of Magnaporthe grisea
Sclerotinia sclerotiorum = Sclerotinia sclerotiorum / liquid culture (cottony rot); settings: 72 h, read-out: control of Sclerotinia sclerotiorum
Procedure: Sclerotinia sclerotiorum/Liquid Culture (Cottony Rot)
Mycelia fragments of a newly grown liquid culture of the fungus are directly mixed into nutrient broth (Vogels broth). After placing a (DMSO) solution of test compound into a microtiter plate (96-well format) the nutrient broth containing the fungal material is added. The test plates are incubated at 24° C. and the inhibition of growth is determined photometrically 3-4 days after application.

Fusarium culmorum [6] = assay: whole plant or invertebrate; type: in vivo; settings: in Triticum aestivum, read-out: control of Fusarium culmorum
[7] = system: Mycosphaerella graminicola (Septoria tritici); assay: Mycosphaerella graminicola (Septoria tritici) / liquid culture (Septoria blotch); type: cell-based; settings: Zymoseptoria tritici; read-out: control of Mycosphaerella graminicola

Structure (SMILES) | inhibition of growth at 200 ppm [1] [%] | inhibition of growth at 200 ppm (Fusarium culmorum [2]) [%] | inhibition of growth at 200 ppm [3] [%] | inhibition of growth at 200 ppm (Gaeumannomyces graminis) [%] | inhibition of growth at 200 ppm [4] [%] | inhibition of growth at 200 ppm [5] [%] | melting point [°C] | inhibition of growth at 20 ppm (Sclerotinia sclerotiorum) [%] | pest or weed control at 200 ppm (Fusarium culmorum [6]) [%] | inhibition of growth at 200 ppm [7] [%]
CC(C)CC(C)(Cc1ccccc1)NC(=O)c1cnc2c(Cl)cccc2c1 (stereo not shown) [Compound E-14, N-(1-benzyl-1,3-dimethyl-butyl)-8-chloro-quinoline-3-carboxamide] | ≥ 80 | ≥ 80 | ≥ 80 | ≥ 80 | ≥ 80 | ≥ 80 | 147 to 148 | ≥ 80 | – | –
CC(C)CC(C)(Cc1ccccc1)NC(=S)c1cnc2c(F)cccc2c1 (stereo not shown) [Compound E-114, N-(1-benzyl-1,3-dimethyl-butyl)-8-fluoro-quinoline-3-carbothioamide] | ≥ 80 | ≥ 80 | ≥ 80 | – | ≥ 80 | ≥ 80 | 150 to 153 | ≥ 80 | ≥ 80 | –
CC(C)CC(C)(Cc1cccc(F)c1)NC(=O)c1cnc2c(F)cccc2c1 (stereo not shown) [Compound E-26, 8-fluoro-N-[1-[(3-fluorophenyl)methyl]-1,3-dimethyl-butyl]quinoline-3-carboxamide] | ≥ 80 | ≥ 80 | ≥ 80 | ≥ 80 | ≥ 80 | ≥ 80 | 45 to 47 | ≥ 80 | ≥ 80 | –
CC(Cc1ccccc1)(CC(F)(F)F)NC(=O)c1cnc2c(F)cccc2c1 (stereo not shown) [Compound E-39, N-(1-benzyl-3,3,3-trifluoro-1-methyl-propyl)-8-fluoro-quinoline-3-carboxamide] | ≥ 80 | ≥ 80 | ≥ 80 | ≥ 80 | – | ≥ 80 | 158 to 160 | ≥ 80 | ≥ 80 | –
CC(C)CC(Cc1ccccc1)NC(=O)c1cnc2c(F)cccc2c1 (stereo not shown) [Compound E-29, N-(1-benzyl-3-methyl-butyl)-8-fluoro-quinoline-3-carboxamide] | ≥ 80 | ≥ 80 | ≥ 80 | – | – | ≥ 80 | 136 to 139 | ≥ 80 | ≥ 80 | –
CC(C)(C)CC(Cc1ccccc1)NC(=O)c1cnc2c(F)cccc2c1 (stereo not shown) [Compound E-28, N-(1-benzyl-3,3-dimethyl-butyl)-8-fluoro-quinoline-3-carboxamide] | ≥ 80 | ≥ 80 | ≥ 80 | ≥ 80 | ≥ 80 | ≥ 80 | 178 to 180 | ≥ 80 | ≥ 80 | –
CC(C)(C)CC(C)(Cc1ccccc1)NC(=O)c1cnc2c(F)cccc2c1 (stereo not shown) [Compound E-34, N-(1-benzyl-1,3,3-trimethyl-butyl)-8-fluoro-quinoline-3-carboxamide] | ≥ 80 | ≥ 80 | ≥ 80 | – | ≥ 80 | ≥ 80 | 48 to 50 | ≥ 80 | – | –
C=C(C)C[C@](C)(Cc1ccccc1)NC(=O)c1cnc2c(F)cccc2c1 [Compound F-10, N-[(1R)-1-benzyl-1,3-dimethyl-but-3-enyl]-8-fluoro-quinoline-3-carboxamide] | ≥ 80 | ≥ 80 | ≥ 80 | ≥ 80 | ≥ 80 | – | – | ≥ 80 | ≥ 80 | –
CC(F)(F)C[C@@](C)(Cc1ccccc1)NC(=O)c1cnc2ccccc2c1 [Compound F-26, N-[(1R)-1-benzyl-3,3-difluoro-1-methyl-butyl]quinoline-3-carboxamide] | ≥ 80 | ≥ 80 | ≥ 80 | – | ≥ 80 | – | – | – | ≥ 80 | ≥ 80
C=C(C)CC(C)(Cc1ccccc1)NC(=O)c1cnc2c(F)cccc2c1 (stereo not shown) [Compound E-35, N-(1-benzyl-1,3-dimethyl-but-3-enyl)-8-fluoro-quinoline-3-carboxamide] | ≥ 80 | ≥ 80 | ≥ 80 | ≥ 80 | ≥ 80 | ≥ 80 | 115 to 117 | ≥ 80 | ≥ 80 | –
CC1(CC(C)(Cc2ccccc2)NC(=O)c2cnc3c(F)cccc3c2)CC1 (stereo not shown) [Compound E-47, N-[1-benzyl-1-methyl-2-(1-methylcyclopropyl)ethyl]-8-fluoro-quinoline-3-carboxamide] | ≥ 80 | ≥ 80 | ≥ 80 | ≥ 80 | – | ≥ 80 | 126 to 129 | ≥ 80 | – | –
CC(C)(F)C[C@](C)(Cc1ccccc1)NC(=O)c1cnc2c(F)cccc2c1 [Compound F-24, N-[(1S)-1-benzyl-3-fluoro-1,3-dimethyl-butyl]-8-fluoro-quinoline-3-carboxamide] | ≥ 80 | ≥ 80 | ≥ 80 | – | ≥ 80 | – | – | – | ≥ 80 | ≥ 80
CC(C)CC(C)(Cc1ccc(F)cc1)NC(=O)c1cnc2c(F)cccc2c1 (stereo not shown) [Compound E-24, 8-fluoro-N-[1-[(4-fluorophenyl)methyl]-1,3-dimethyl-butyl]quinoline-3-carboxamide] | ≥ 80 | ≥ 80 | ≥ 80 | ≥ 80 | ≥ 80 | ≥ 80 | 38 to 39 | ≥ 80 | ≥ 80 | –
CC(C)CC(C)(Cc1ccc(Cl)cc1)NC(=O)c1cnc2c(F)cccc2c1 (stereo not shown) [Compound E-25] | ≥ 80 | ≥ 80 | ≥ 80 | ≥ 80 | – | ≥ 80 | 57 to 59 | ≥ 80 | ≥ 80 | –
Cc1c(C(=O)NC(C)(Cc2ccccc2)CC(C)C)cnc2c(F)cccc12 (stereo not shown) [Compound E-15, N-(1-benzyl-1,3-dimethyl-butyl)-8-fluoro-4-methyl-quinoline-3-carboxamide] | ≥ 80 | ≥ 80 | ≥ 80 | – | – | ≥ 80 | 92 to 94 | ≥ 80 | ≥ 80 | –
C=C(C)CC(C)(Cc1ccccc1)NC(=O)c1cnc2ccccc2c1 (stereo not shown) [Compound E-36, N-(1-benzyl-1,3-dimethyl-but-3-enyl)quinoline-3-carboxamide] | ≥ 80 | ≥ 80 | ≥ 80 | – | ≥ 80 | ≥ 80 | 99 to 103 | ≥ 80 | ≥ 80 | –
Cc1ccccc1CC(C)(CC(C)C)NC(=O)c1cnc2c(F)cccc2c1 (stereo not shown) [Compound E-23, N-[1,3-dimethyl-1-(o-tolylmethyl)butyl]-8-fluoro-quinoline-3-carboxamide] | ≥ 80 | ≥ 80 | ≥ 80 | ≥ 80 | ≥ 80 | ≥ 80 | 125 to 126 | – | ≥ 80 | –
Cc1cccc2cc(C(=O)NC(C)(Cc3ccccc3)CC(C)C)cnc12 (stereo not shown) [Compound E-20, N-(1-benzyl-1,3-dimethyl-butyl)-8-methyl-quinoline-3-carboxamide] | ≥ 80 | ≥ 80 | ≥ 80 | ≥ 80 | ≥ 80 | ≥ 80 | 132 to 133 | ≥ 80 | ≥ 80 | –
CC(C)C[C@](C)(Cc1ccccc1)NC(=O)c1cnc2c(F)cccc2c1 [Compound F-1, N-[(1R)-1-benzyl-1,3-dimethyl-butyl]-8-fluoro-quinoline-3-carboxamide] | ≥ 80 | ≥ 80 | ≥ 80 | ≥ 80 | ≥ 80 | ≥ 80 | – | ≥ 80 | ≥ 80 | –
